Measurements published in US20210353593A1 (Chinook Therapeutics, Inc., priority 2019, published 2021).
“Also recorded” adds a separate entry of the source.

What was measured:
[1] = tested on: upstream regulators in kidney tissue of g-ddY mice; assay: IPA upstream regulator analysis, g-ddY mouse kidney RNA-seq; assay type: in vivo; details: 30 mg/kg/day
[2] = tested on: primary human renal mesangial cells (HRMCs); assay: Proliferation (BrdU) of primary human renal mesangial cells stimulated with IgA-containing immune complexes; assay type: cell-based
Excerpt: Primary human mesangial cells in a culture were stimulated with pathogenic galactose deficient (Gd)-IgA containing immune complexes isolated from human IgA nephropathy patients.
Specifically, pathogenic IgA-containing immune complexes were isolated from serum from either IgA nephropathy patients or age, gender and ethnicity-matched healthy individuals. Frozen serum was purchased from BioIVT and IgA-containing immune complexes were purified using jacalin affinity chromatography. […] Purified IgA-containing immune complexes were concentrated using a 100K Amicon filtration unit and the amount of total IgA and galactose-deficient IgA (Gd-IgA) in the immune complexes was measured by ELISA (ThermoFisher and IBL America, respectively). […] See, e.g., Novak et. al., Kidney International, 67, pp. 504-516; 2005; Novak et. al., Nephrol. Dial. Transplant, 26, pp. 3451-3457; 2011; Liang et. al., Cell Physiol. Biochem., 36, pp. 1793-1808; 2015; Nguyen et. al., Clin. Kidney 1, 12 (2), pp, 232-238; 2019.

CCCCN(CCCC)C(=O)CN1C[C@H](c2ccc3c(c2)OCO3)[C@@H](C(=O)O)[C@@H]1c1ccc(OC)cc1 [Atrasentan, (2R,3R,4S)-4-(1,3-benzodioxol-5-yl)-1-[2-(dibutylamino)-2-oxoethyl]-2-(4-methoxyphenyl)pyrrolidine-3-carboxylic acid]
26s Proteasome Activation z-score [1]: −2.122 | 26s Proteasome Predicted Activation State [1]: Inhibited | ADGRF5 Activation z-score [1]: 2 | ADGRF5 Predicted Activation State [1]: Activated | AGT Activation z-score [1]: −4.741 | AGT Predicted Activation State [1]: Inhibited | BMP2 Activation z-score [1]: −2.435 | BMP2 Predicted Activation State [1]: Inhibited | CCL5 Activation z-score [1]: −2.268 | CCL5 Predicted Activation State [1]: Inhibited | CCN5 Activation z-score [1]: 2.45 | CCN5 Predicted Activation State [1]: Activated | CCR2 Activation z-score [1]: −3.791 | CCR2 Predicted Activation State [1]: Inhibited | CD40LG Activation z-score [1]: −3.607 | CD40LG Predicted Activation State [1]: Inhibited | CG Activation z-score [1]: −4.34 | CG Predicted Activation State [1]: Inhibited | CHRM3 Activation z-score [1]: −2.425 | CHRM3 Predicted Activation State [1]: Inhibited | CSF2 Activation z-score [1]: −5.645 | CSF2 Predicted Activation State [1]: Inhibited | CSF3 Activation z-score [1]: −3.116 | CSF3 Predicted Activation State [1]: Inhibited | CXCL12 Activation z-score [1]: −2.851 | CXCL12 Predicted Activation State [1]: Inhibited | DKK1 Activation z-score [1]: 2.113 | DKK1 Predicted Activation State [1]: Activated | EDN1 Activation z-score [1]: −4.26 | EDN1 Predicted Activation State [1]: Inhibited | EDNRA Activation z-score [1]: −2.449 | EDNRA Predicted Activation State [1]: Inhibited | EGF Activation z-score [1]: −3.649 | EGF Predicted Activation State [1]: Inhibited | F2R Activation z-score [1]: −3.04 | F2R Predicted Activation State [1]: Inhibited | F3 Activation z-score [1]: −3.862 | F3 Predicted Activation State [1]: Inhibited | FAS Activation z-score [1]: 2.887 | FAS Predicted Activation State [1]: Activated | FCGR1A Activation z-score [1]: −2.201 | FCGR1A Predicted Activation State [1]: Inhibited | FGF2 Activation z-score [1]: −4.33 | FGF2 Predicted Activation State [1]: Inhibited | FGF23 Activation z-score [1]: −2.497 | FGF23 Predicted Activation State [1]: Inhibited | GDF2 Activation z-score [1]: −2.055 | GDF2 Predicted Activation State [1]: Inhibited | GPER1 Activation z-score [1]: −3.527 | GPER1 Predicted Activation State [1]: Inhibited | HGF Activation z-score [1]: −5.138 | HGF Predicted Activation State [1]: Inhibited | HTR7 Activation z-score [1]: −2.219 | HTR7 Predicted Activation State [1]: Inhibited | IFNA2 Activation z-score [1]: −3.465 | IFNA2 Predicted Activation State [1]: Inhibited | IFNAR1 Activation z-score [1]: −3.094 | IFNAR1 Predicted Activation State [1]: Inhibited | IFNG Activation z-score [1]: −4.604 | IFNG Predicted Activation State [1]: Inhibited | IGF1 Activation z-score [1]: −2.676 | IGF1 Predicted Activation State [1]: Inhibited | IGF1R Activation z-score [1]: 2.165 | IGF1R Predicted Activation State [1]: Activated | IL1A Activation z-score [1]: −4.942 | IL1A Predicted Activation State [1]: Inhibited | IL1B Activation z-score [1]: −7.154 | IL1B Predicted Activation State [1]: Inhibited | IL2 Activation z-score [1]: −4.023 | IL2 Predicted Activation State [1]: Inhibited | IL3 Activation z-score [1]: −3.894 | IL3 Predicted Activation State [1]: Inhibited | IL6 Activation z-score [1]: −3.872 | IL6 Predicted Activation State [1]: Inhibited | IL6R Activation z-score [1]: −2.179 | IL6R Predicted Activation State [1]: Inhibited | IL10 Activation z-score [1]: −2.775 | IL10 Predicted Activation State [1]: Inhibited | IL21 Activation z-score [1]: −2.886 | IL21 Predicted Activation State [1]: Inhibited | IL33 Activation z-score [1]: −3.781 | IL33 Predicted Activation State [1]: Inhibited | Ifn gamma Activation z-score [1]: −3.354 | Ifn gamma Predicted Activation State [1]: Inhibited | Ige Activation z-score [1]: −4.883 | Ige Predicted Activation State [1]: Inhibited | LDL Activation z-score [1]: −3.568 | LDL Predicted Activation State [1]: Inhibited | LGR5 Activation z-score [1]: 2.137 | LGR5 Predicted Activation State [1]: Activated | Laminin (complex) Activation z-score [1]: 2.043 | Laminin (complex) Predicted Activation State [1]: Activated | NFkB (complex) Activation z-score [1]: −5.503 | NFkB (complex) Predicted Activation State [1]: Inhibited | NRG1 Activation z-score [1]: −3.478 | NRG1 Predicted Activation State [1]: Inhibited | OSM Activation z-score [1]: −5.912 | OSM Predicted Activation State [1]: Inhibited | PDGF BB Activation z-score [1]: −3.976 | PDGF BB Predicted Activation State [1]: Inhibited | PDGFB Activation z-score [1]: −2.622 | PDGFB Predicted Activation State [1]: Inhibited | PF4 Activation z-score [1]: −2.219 | PF4 Predicted Activation State [1]: Inhibited | PI3K (complex) Activation z-score [1]: −3.293 | PI3K (complex) Predicted Activation State [1]: Inhibited | PLA2R1 Activation z-score [1]: 2.917 | PLA2R1 Predicted Activation State [1]: Activated | PRL Activation z-score [1]: −3.529 | PRL Predicted Activation State [1]: Inhibited | PROKR1 Activation z-score [1]: 2 | PROKR1 Predicted Activation State [1]: Activated | PTGER4 Activation z-score [1]: 2.017 | PTGER4 Predicted Activation State [1]: Activated | Pdgf (complex) Activation z-score [1]: −2.779 | Pdgf (complex) Predicted Activation State [1]: Inhibited | SMO Activation z-score [1]: 2.621 | SMO Predicted Activation State [1]: Activated | TCR Activation z-score [1]: −2.362 | TCR Predicted Activation State [1]: Inhibited | TGFB1 Activation z-score [1]: −5.163 | TGFB1 Predicted Activation State [1]: Inhibited | TGFB2 Activation z-score [1]: −2.631 | TGFB2 Predicted Activation State [1]: Inhibited | TGFB3 Activation z-score [1]: −2.663 | TGFB3 Predicted Activation State [1]: Inhibited | TLR3 Activation z-score [1]: −5.02 | TLR3 Predicted Activation State [1]: Inhibited | TLR4 Activation z-score [1]: −4.561 | TLR4 Predicted Activation State [1]: Inhibited | TLR9 Activation z-score [1]: −4.894 | TLR9 Predicted Activation State [1]: Inhibited | TNF Activation z-score [1]: −6.593 | TNF Predicted Activation State [1]: Inhibited | TNFRSF1A Activation z-score [1]: −2.449 | TNFRSF1A Predicted Activation State [1]: Inhibited | TNFSF11 Activation z-score [1]: −2.519 | TNFSF11 Predicted Activation State [1]: Inhibited | TNFSF12 Activation z-score [1]: −3.271 | TNFSF12 Predicted Activation State [1]: Inhibited | TREM1 Activation z-score [1]: −3.62 | TREM1 Predicted Activation State [1]: Inhibited | TSLP Activation z-score [1]: −2.533 | TSLP Predicted Activation State [1]: Inhibited | TYROBP Activation z-score [1]: −2.376 | TYROBP Predicted Activation State [1]: Inhibited | VEGFA Activation z-score [1]: −2.501 | VEGFA Predicted Activation State [1]: Inhibited | VEGFB Activation z-score [1]: 3.128 | VEGFB Predicted Activation State [1]: Activated | WNT3A Activation z-score [1]: −3.711 | WNT3A Predicted Activation State [1]: Inhibited | basal cell proliferation in HRMCs ([2]; IgA containing serum fractions from healthy controls): no effect | proliferation of HRMCs induced by IgA containing immune complexes from patients with IgA nephropathy ([2]; immune complexes from three separate IgAN patients, BrdU): reduces the proliferation; also recorded: significantly attenuated the hyperproliferation
